Consider 31 molecules from patent US7064124B2, “NF-κB inhibitor containing substituted benzoic acid derivative as active ingredient” (Daiichi Suntory Pharma Co., Ltd., priority 2001, dated 2006).

For one data set, the system named is NF-κB. Kind of data set: NF-κB luciferase reporter assay in A549/NF-κBLuc cells stimulated with IL-1β. The data set is classed as cell-based, human. The note with it: Homo sapiens, A549, A549/NF-κBLuc cells; compound added 1 hour before IL-1β, then 3 hours incubation; luciferase activity; read-out: NF-κB Inhibitory Activity (IC50). How it is done:
Effect on Human Lung Cancer-Derived Cell A549 (A549/NF-κBluc) Containing Stably Introduced Luciferase Plasmid (pNFκB-Luc, Stratagene. U.S.A.) Regulated by NF-κB Binding Sequence
Using Lipofectamine (Lifetech Oriental, Tokyo), pNFκB-Luc and pSV2neo (Clontech, U.S.A.) were co-transfected into the A549 cell (ATCC CCL185) and G418 sulfate (1 mg/ml, Lifetech Oriental) was added to the culture medium to select cells containing stably introduced pNFκB-Luc A549/NF-κBLuc.
The compound obtained in Examples each was added to A549/NF-κBLuc and one hour after that, IL-1β capable of activating NF-κB was added. The incubation was further continued for 3 hours.
NF-κB Inhibitory Activity (IC50) of Substituted Benzoic Acid Derivitives: […]

Regarding `COC1=C(OC)C(=O)C(Cc2ccc(O)c(C(=O)Nc3ccc(OC)c(OC)c3)c2)=C(C)C1=O` [Example 115, N-[5-(5,6-Dimethoxy-3-methyl-1,4-benzoquinon-2-yl)methyl-2-hydroxybenzoyl]-3,4-dimethoxyaniline], the IC50 (commonly the midpoint of a concentration-inhibition curve) in the data set on NF-κB was 36 µM.
As to `COC1=C(OC)C(=O)C(Cc2ccc(O)c(C(=O)Nc3ccc(C(C)=O)cc3)c2)=C(C)C1=O` [Example 116, N-[5-(5,6-Dimethoxy-3-methyl-1,4-benzoquinon-2-yl)methyl-2-hydroxybenzoyl]-4-acetylaniline], the IC50 in the data set on NF-κB worked out at 17 µM.
For the molecule `COC1=C(OC)C(=O)C(Cc2ccc(O)c(C(=O)Nc3ccc(Cl)cc3)c2)=C(C)C1=O` [Example 117], the 50% inhibitory concentration (IC50) with NF-κB is 20 µM.
Consider `COC1=C(OC)C(=O)C(Cc2ccc(O)c(C(=O)Nc3ccc(N4CCOCC4)cc3)c2)=C(C)C1=O` [Example 118, N-[5-(5,6-Dimethoxy-3-methyl-1,4-benzoquinon-2-yl)methyl-2-hydroxybenzoyl]-4-morpholinoaniline], for which the IC50 in the data set on NF-κB turned out to be 8.3 µM.
Still for that read-out and setting: the figure for `COC1=C(OC)C(=O)C(Cc2ccc(O)c(C(=O)Nc3ccc(C#N)cc3)c2)=C(C)C1=O` [Example 119, N-[5-(5,6-Dimethoxy-3-methyl-1,4-benzoquinon-2-yl)methyl-2-hydroxybenzoyl]-4-cyanoaniline] is 13 µM.
In the case of `COC1=C(OC)C(=O)C(Cc2ccc(O)c(C(=O)Nc3ccc(C(F)(F)F)cc3)c2)=C(C)C1=O` [Example 120, N-[5-(5,6-Dimethoxy-3-methyl-1,4-benzoquinon-2-yl)methyl-2-hydroxybenzoyl]-4-trifluoromethylaniline], in the data set with NF-κB, the IC50 is 1.7 µM.
In the case of `COC1=C(OC)C(=O)C(Cc2ccc(O)c(C(=O)Nc3cc(C(F)(F)F)cc(C(F)(F)F)c3)c2)=C(C)C1=O` [Example 121, N-[5-(5,6-Dimethoxy-3-methyl-1,4-benzoquinon-2-yl)methyl-2-hydroxybenzoyl]-3,5-bistrifluoromethylaniline], the IC50 with NF-κB turned out to be 64 µM.
Take `COC1=C(OC)C(=O)C(Cc2ccc(Oc3ccccc3)c(C(=O)N3CCCc4ccccc43)c2)=C(C)C1=O` [Example 124, N-[5-(5,6-Dimethoxy-3-methyl-1,4-benzoquinon-2-yl)methyl-2-phenoxybenzoyl]-1,2,3,4-tetrahydroquinoline]: the 50% inhibitory concentration (IC50) with NF-κB is 46 µM.
Take `COC1=C(OC)C(=O)C(Cc2ccc(Oc3ccccc3)c(C(=O)N3CCCCC3C)c2)=C(C)C1=O` (stereo not shown) [Example 125, N-[5-(5,6-Dimethoxy-3-methyl-1,4-benzoquinon-2-yl)methyl-2-phenoxybenzoyl]-2-methylpiperidine]: in the data set on NF-κB, the half-inhibitory concentration (IC50) was determined as 19 µM.
As for `COC1=C(OC)C(=O)C(Cc2ccc(OCc3cccnc3)c(C(=O)N3CCCc4ccccc43)c2)=C(C)C1=O` [Example 126, N-[5-(5,6-Dimethoxy-3-methyl-1,4-benzoquinon-2-yl)methyl-2-(3-pyridylmethyloxy)benzoyl]-1,2,3,4-tetrahydroquinoline], the concentration for half-maximal inhibition (IC50) in the data set on NF-κB amounted to 24 µM.
On to `COC1=C(OC)C(=O)C(Cc2ccc(OCc3cccnc3)c(C(=O)N3CCC(C)CC3)c2)=C(C)C1=O` [Example 127, N-[5-(5,6-Dimethoxy-3-methyl-1,4-benzoquinon-2-yl)methyl-2-(3-pyridylmethyloxy)benzoyl]-4-methylpiperidine], for which the concentration for half-maximal inhibition (IC50) in the data set with NF-κB was determined as 24 µM.
On the same count and under the same terms, the figure for `COC1=C(OC)C(=O)C(Cc2ccc(OCc3cccnc3)c(C(=O)Nc3cc(OC)c(OC)c(OC)c3)c2)=C(C)C1=O` [Example 128, N-[5-(5,6-Dimethoxy-3-methyl-1,4-benzoquinon-2-yl)methyl-2-(3-pyridylmethyloxy)benzoyl]-3,4,5-trimethoxyaniline] is 19 µM; for `COC(=O)c1cc(CC2=C(C)C(=O)C(OC)=C(OC)C2=O)ccc1OCC(=O)OC(C)(C)C` [Example 130, Methyl 5-(5,6-Dimethoxy-3-methyl-1,4-benzoquinon-2-yl)methyl-2-(tert-butoxycarbonylmethyloxy)benzoate] it is 59 µM.
With `COC1=C(OC)C(=O)C(Cc2ccc(C(=O)Nc3ccc(Cl)nc3)c(O)c2)=C(C)C1=O` [Example 131, N-(6-Chloropyridin-3-yl)-4-(5,6-dimethoxy-3-methyl-1,4-benzoquinon-2-yl)methyl-2-hydroxybenzamide], the melting point (usually the temperature of the solid-liquid transition) fell in the range of 200.2 to 201.9 °C.
With `COC1=C(OC)C(=O)C(Cc2ccc(C(=O)Nc3cccnc3Cl)c(OC(C)=O)c2)=C(C)C1=O` [Example 132, N-(2-Chloropyridin-3-yl)-4-(5,6-dimethoxy-3-methyl-1,4-benzoquinon-2-yl)methyl-2-acetoxybenzamide], the melting point lay within 113.5 to 115.1 °C.
Molecule `COC1=C(OC)C(=O)C(Cc2ccc(C(=O)Nc3cccnc3Cl)c(O)c2)=C(C)C1=O` [Example 133] showed a melting point of 200.2 to 202.6 °C.
As for `COC1=C(OC)C(=O)C(Cc2ccc(C(=O)Nc3ccc(OC)nc3)c(OC(C)=O)c2)=C(C)C1=O` [Example 134, N-(6-Methoxypyridin-3-yl)-4-(5,6-dimethoxy-3-methyl-1,4-benzoquinon-2-yl)methyl-2-acetoxybenzamide], the melting point lay within 124.7 to 125.5 °C.
On the same count and under the same terms, the figure for `COC1=C(OC)C(=O)C(Cc2ccc(C(=O)Nc3ccc(OC)nc3)c(O)c2)=C(C)C1=O` [Example 135, N-(6-Methoxypyridin-3-yl)-4-(5,6-dimethoxy-3-methyl-1,4-benzoquinon-2-yl)methyl-2-hydroxybenzamide] is 194.3 to 196.5 °C.
On the same count and under the same terms, the same measure for `COC1=C(OC)C(=O)C(Cc2ccc(C(=O)Nc3ccc(S(=O)(=O)C(F)(F)F)cc3)c(O)c2)=C(C)C1=O` [Example 137, N-[4-(5,6-Dimethoxy-3-methyl-1,4-benzoquinon-2-yl)methyl-2-hydroxybenzoyl]-4-(trifluoromethylsulfonyl)aniline]: 186.9 to 187.5 °C; for `COC1=C(OC)C(=O)C(Cc2ccc(C(=O)Nc3cccnc3)c(OC(C)=O)c2)=C(C)C1=O` [Example 138, N-(Pyridin-3-yl)-4-(5,6-dimethoxy-3-methyl-1,4-benzoquinon-2-yl)methyl-2-acetoxybenzamide]: 158.2 to 160 °C; for `COC1=C(OC)C(=O)C(Cc2ccc(C(=O)Nc3cccnc3)c(O)c2)=C(C)C1=O` [Example 139, N-(Pyridin-3-yl)-4-(5,6-dimethoxy-3-methyl-1,4-benzoquinon-2-yl)methyl-2-hydroxybenzamide]: 138.1 to 139.7 °C.
For `COC1=C(OC)C(=O)C(Cc2ccc(C(=O)Nc3ccncc3)c(O)c2)=C(C)C1=O` [Example 140, N-(Pyridin-4-yl)-4-(5,6-dimethoxy-3-methyl-1,4-benzoquinon-2-yl)methyl-2-hydroxybenzamide], the melting point fell in the range of 181.4 to 183.3 °C.
`COC1=C(OC)C(=O)C(Cc2ccc(OC(C)=O)c(C(=O)Nc3ccc(F)cc3)c2)=C(C)C1=O` [Example 141, N-[5-(5,6-Dimethoxy-3-methyl-1,4-benzoquinon-2-yl)methyl-2-acetoxybenzoyl]-4-fluoroaniline] gave a melting point of 128.5 to 130.5 °C.
On to `COC1=C(OC)C(=O)C(Cc2ccc(OC(C)=O)c(C(=O)N(C)c3ccc(OC)cc3)c2)=C(C)C1=O` [Example 163, N-Methyl-[5-(5,6-dimethoxy-3-methyl-1,4-benzoquinon-2-yl)methyl-2-acetoxybenzoyl]-4-methoxyaniline], for which the IC50 in the data set on NF-κB is 30 µg/mL.
Still for that read-out and setting: the same measure for `COC1=C(OC)C(=O)C(Cc2ccc(O)c(C(=O)N(C)c3ccc(OC)cc3)c2)=C(C)C1=O` [Example 164, N-Methyl-[5-(5,6-dimethoxy-3-methyl-1,4-benzoquinon-2-yl)methyl-2-hydroxybenzoyl]-4-methoxyaniline]: 20 µg/mL.
For the molecule `COC1=C(OC)C(=O)C(Cc2ccc(OC(C)=O)c(C(=O)Nc3cccnc3)c2)=C(C)C1=O` [Example 201, N-(Pyridin-3-yl)-5-(5,6-dimethoxy-3-methyl-1,4-benzoquinon-2-yl)methyl-2-acetoxybenzamide], in the data set on NF-κB, the IC50 is 16 µg/mL.
As for `COC1=C(OC)C(=O)C(Cc2ccc(O)c(C(=O)Nc3ccc(N)cc3)c2)=C(C)C1=O` [Example 204, N-[5-(5,6-Dimethoxy-3-methyl-1,4-benzoquinon-2-yl)methyl-2-hydroxybenzoyl]-p-phenylenediamine], the IC50 in the data set on NF-κB is 47 µg/mL.
Regarding `COC1=C(OC)C(=O)C(Cc2cccc(C(=O)Nc3cccnc3)c2OC(C)=O)=C(C)C1=O` [Example 206, N-(Pyridin-3-yl)-3-(5,6-dimethoxy-3-methyl-1,4-benzoquinon-2-yl)methyl-2-acetoxybenzamide], in the data set with NF-κB, the IC50 stood at 87 µg/mL.
Turning to `COC1=C(OC)C(=O)C(Cc2ccc(OC(C)=O)c(C(=O)Nc3cccnc3N3CCOCC3)c2)=C(C)C1=O` [Example 222, N-(2-Morpholinopyridin-3-yl)-5-(5,6-dimethoxy-3-methyl-1,4-benzoquinon-2-yl)methyl-2-acetoxybenzamide], in the data set on NF-κB, the IC50 was determined as 77 µg/mL.
Regarding `COC1=C(OC)C(=O)C(Cc2ccc(OC(C)=O)c(C(=O)Nc3ccc(N4CCOCC4)nc3)c2)=C(C)C1=O` [Example 224, N-(6-Morpholinopyridin-3-yl)-5-(5,6-dimethoxy-3-methyl-1,4-benzoquinon-2-yl)methyl-2-acetoxybenzamide], the IC50 with NF-κB was found to be 24 µg/mL.
Consider `COC1=C(OC)C(=O)C(Cc2ccc(OC(C)=O)c(C(=O)Nc3ccnc(Cl)c3)c2)=C(C)C1=O` [Example 226, N-(2-Chloropyridin-4-yl)-5-(5,6-dimethoxy-3-methyl-1,4-benzoquinon-2-yl)methyl-2-acetoxybenzamide], for which, in the data set with NF-κB, the half-maximal inhibitory concentration (IC50) stood at 19 µg/mL.
